The text below walks through data of patent publication US9630963B2, “Quinolone derivatives as fibroblast growth factor inhibitors” (Principia Biopharma, Inc., priority 2013, dated 2017).

One test concerns SNU-16 cells. In words: Inhibition of FGFR2-dependent cell growth (Cell-titer Glo). Format: cell-based. As to conditions: Homo sapiens, SNU16 cells, 72 hrs incubation, cell viability by Cell-titer Glo. The procedure:
The cell-based effects of FGFR inhibitors were determined by measuring inhibition of FGFR-dependent cell line growth. […] Percent inhibition of cell growth was calculated as a percentage of untreated cell viability. The percent inhibition was plotted as a function of log compound concentration. The IC50 was then calculated for each compound using Prism software from GraphPad.

Another test deals with human recombinant FGFR1 (Homo sapiens, UniProt P11362). The test can be described thus: FGFR family enzymatic activity assay (Caliper-based kinase assay), FGFR1. As to conditions: FGFR1 0.5 nM, ATP 100 μM, peptide substrate 1 μM, room temperature 3 h. It counts as biochemical. The source says:
A Caliper-based kinase assay (Caliper Life Sciences, Hopkinton, Mass.) was used to measure inhibition of FGFR family (FGFR1, FGFR2, FGFR3, FGFR4) kinase activity of a compound of Formula (I′) or (I). […] This value is presented as the IC50.

human recombinant FGFR1, sequence (P11362 22-822): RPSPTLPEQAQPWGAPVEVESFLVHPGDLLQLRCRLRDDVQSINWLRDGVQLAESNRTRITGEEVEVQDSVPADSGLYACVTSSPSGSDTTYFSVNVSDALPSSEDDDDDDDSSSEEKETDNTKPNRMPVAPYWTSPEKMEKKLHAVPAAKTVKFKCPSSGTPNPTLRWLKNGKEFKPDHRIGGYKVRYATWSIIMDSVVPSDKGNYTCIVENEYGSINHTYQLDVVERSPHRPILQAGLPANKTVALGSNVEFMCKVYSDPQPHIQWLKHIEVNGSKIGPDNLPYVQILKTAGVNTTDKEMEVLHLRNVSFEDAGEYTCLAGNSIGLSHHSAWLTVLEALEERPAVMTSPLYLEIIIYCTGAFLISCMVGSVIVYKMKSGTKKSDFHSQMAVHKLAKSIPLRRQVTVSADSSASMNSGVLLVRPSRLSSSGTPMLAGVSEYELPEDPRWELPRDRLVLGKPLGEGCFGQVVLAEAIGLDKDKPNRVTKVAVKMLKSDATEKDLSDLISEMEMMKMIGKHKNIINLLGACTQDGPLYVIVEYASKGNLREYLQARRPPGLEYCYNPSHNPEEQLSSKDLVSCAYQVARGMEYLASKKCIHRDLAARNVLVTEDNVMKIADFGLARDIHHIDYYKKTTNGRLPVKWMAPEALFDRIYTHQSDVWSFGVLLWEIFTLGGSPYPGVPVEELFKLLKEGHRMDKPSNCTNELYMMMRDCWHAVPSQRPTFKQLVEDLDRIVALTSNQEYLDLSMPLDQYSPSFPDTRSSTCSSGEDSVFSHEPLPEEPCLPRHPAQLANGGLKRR

`C=CC(=O)Nc1ccc(CCn2c(=O)c(-c3c(Cl)c(OC)cc(OC)c3Cl)cc3cnc(NCC4(O)CCN(C)CC4)nc32)cc1` [Example 98, N-(4-(2-(6-(2,6-dichloro-3,5-dimethoxyphenyl)-2-(((4-hydroxy-1-methylpiperidin-4-yl)methyl)-amino)-7-oxopyrido[2,3-d]pyrimidin-8(7H)-yl)ethyl)phenyl)acrylamide]: the IC50 in the test with SNU-16 cells was determined as 16.4 nM; on human recombinant FGFR1 it was 0.3 nM.

`CNc1ncc2cc(-c3cc(OC)cc(OC)c3Cl)c(=O)n(CCc3ccc(NC(=O)/C=C/CN(C)C)cc3)c2n1` [Example 22, (E)-N-(4-(2-(6-(2-chloro-3,5-dimethoxyphenyl)-2-(methylamino)-7-oxopyrido[2,3-d]pyrimidin-8(7H)-yl)ethyl)phenyl)-4-(dimethylamino)but-2-enamide]: the values for the IC50 in the test with SNU-16 cells and on human recombinant FGFR1 were 1 nM and 0.4 nM, respectively.

Consider `C=CC(=O)Nc1ccc(CCn2c(=O)c(-c3cc(OC)cc(OC)c3Cl)cc3cnc(NCCO)nc32)nc1` [Example 104, N-(6-(2-(6-(2-chloro-3,5-dimethoxyphenyl)-2-((2-hydroxyethyl)amino)-7-oxopyrido[2,3-d]pyrimidin-8(7H)-yl)ethyl)pyridin-3-yl)acrylamide], for which the IC50 in the test with SNU-16 cells was found to be 13.4 nM; at human recombinant FGFR1, 0.8 nM.

For the compound `C=CC(=O)Nc1ccc(CCn2c(=O)c(-c3c(Cl)c(OC)cc(OC)c3Cl)cc3cnc(NC(C)(C)CO)nc32)nc1` [Example 94, N-(6-(2-(6-(2,6-dichloro-3,5-dimethoxyphenyl)-2-((1-hydroxy-2-methylpropan-2-yl)amino)-7-oxopyrido[2,3-d]pyrimidin-8(7H)-yl)ethyl)pyridin-3-yl)acrylamide], the results for the IC50 in the test on SNU-16 cells and at human recombinant FGFR1 were 7.4 nM and 2.1 nM, respectively.

Take `C=CC(=O)Nc1ccc(CCn2c(=O)c(-c3cc(OC)cc(OC)c3Cl)cc3cnc(NCC4CC4)nc32)nc1` [Example 103, N-(6-(2-(6-(2-chloro-3,5-dimethoxyphenyl)-2-((cyclopropylmethyl)amino)-7-oxopyrido[2,3-d]pyrimidin-8(7H)-yl)ethyl)pyridin-3-yl)acrylamide]: the IC50 worked out at 3.6 nM in the test on SNU-16 cells and 0.6 nM on human recombinant FGFR1.

On to `C=CS(=O)(=O)Nc1cccc(CCn2c(=O)c(-c3cc(OC)cc(OC)c3Cl)cc3cnc(NC)nc32)c1` [Example 21, N-(3-(2-(6-(2-chloro-3,5-dimethoxyphenyl)-2-(methylamino)-7-oxopyrido[2,3-d]pyrimidin-8(7H)-yl)ethyl)phenyl)ethenesulfonamide], for which the IC50 came to 115 nM in the test on SNU-16 cells and 6.7 nM on human recombinant FGFR1.

On to `C#CCNc1ncc2cc(-c3c(Cl)c(OC)cc(OC)c3Cl)c(=O)n(CCc3ccc(NC(=O)C=C)cn3)c2n1` [Example 101, N-(6-(2-(6-(2,6-dichloro-3,5-dimethoxyphenyl)-7-oxo-2-(prop-2-yn-1-ylamino)-pyrido[2,3-d]pyrimidin-8(7H)-yl)ethyl)pyridin-3-yl)acrylamide], for which the results for the IC50 in the test on SNU-16 cells and on human recombinant FGFR1 were 1.6 nM and 0.3 nM, respectively.

For `C=CC(=O)Nc1nc(CCn2c(=O)c(-c3c(Cl)c(OC)cc(OC)c3Cl)cc3cnc(NC)nc32)cs1` [Example 41, N-(4-(2-(6-(2,6-dichloro-3,5-dimethoxyphenyl)-2-(methylamino)-7-oxopyrido[2,3-d]pyrimidin-8(7H)-yl)ethyl)thiazol-2-yl)acrylamide], the IC50 in the test on SNU-16 cells is > 330 nM; at human recombinant FGFR1, 5 nM.

With `C=CC(=O)Nc1ccc(CCn2c(=O)c(-c3cc(OC)cc(OC)c3Cl)cc3cnc(N)nc32)cc1` [Example 27, N-(4-(2-(2-amino-6-(2-chloro-3,5-dimethoxyphenyl)-7-oxopyrido[2,3-d]pyrimidin-8(7H)-yl)ethyl)phenyl)acrylamide], the concentration for half-maximal inhibition (IC50) was 7.4 nM with SNU-16 cells and 0.9 nM on human recombinant FGFR1.

Turning to `C=CC(=O)Nc1ccc(CCn2c(=O)c(-c3cc(OC)cc(OC)c3Cl)cc3cnc(NCC(C)(C)CO)nc32)cc1` [Example 83, N-(4-(2-(6-(2-chloro-3,5-dimethoxyphenyl)-2-((3-hydroxy-2,2-dimethyl-propyl)amino)-7-oxopyrido[2,3-d]pyrimidin-8(7H)-yl)ethyl)phenyl)acrylamide], the IC50 was 4.2 nM in the test with SNU-16 cells and 0.6 nM on human recombinant FGFR1.

`C=CC(=O)Nc1ccc(CCn2c(=O)c(-c3cc(OC)cc(OC)c3Cl)cc3cnc(NCC(C)(C)O)nc32)cn1` [Example 28, N-(5-(2-(6-(2-chloro-3,5-dimethoxyphenyl)-2-((2-hydroxy-2-methylpropyl)amino)-7-oxopyrido[2,3-d]pyrimidin-8(7H)-yl)ethyl)pyridin-2-yl)acrylamide]: the figures for the IC50 in the test with SNU-16 cells and at human recombinant FGFR1 were 3.8 nM and 4.3 nM, respectively.

As to `C=CC(=O)Nc1ccc(CCn2c(=O)c(-c3cc(OC)cc(OC)c3Cl)cc3cnc(NCCN4CCN(C5COC5)CC4)nc32)cc1` [Example 78, N-(4-(2-(6-(2-chloro-3,5-dimethoxyphenyl)-2-((2-(4-(oxetan-3-yl)piperazin-1-yl)ethyl)amino)-7-oxopyrido[2,3-d]pyrimidin-8(7H)-yl)ethyl)phenyl)acrylamide], the IC50 with SNU-16 cells was determined as 3 nM; on human recombinant FGFR1, 0.9 nM.

Turning to `CNc1ncc2cc(-c3cc(OC)cc(OC)c3Cl)c(=O)n(CCc3cccc(NC(=O)/C=C/CN(C)C)c3)c2n1` [Example 23, (E)-N-(3-(2-(6-(2-chloro-3,5-dimethoxyphenyl)-2-(methylamino)-7-oxopyrido[2,3-d]pyrimidin-8(7H)-yl)ethyl)phenyl)-4-(dimethylamino)but-2-enamide], the IC50 in the test with SNU-16 cells was 1 nM; on human recombinant FGFR1 it was 1.2 nM.

On to `C=CC(=O)Nc1cccc(CCn2c(=O)c(-c3cc(OC)cc(OC)c3F)cc3cnc(NCCN4CCOCC4)nc32)c1` [Example 52, N-(3-(2-(6-(2-fluoro-3,5-dimethoxyphenyl)-2-(2-morpholin-4-ylethyllamino)-7-oxopyrido[2,3-d]pyrimidin-8(7H)-yl)ethyl)phenyl)acrylamide], for which the IC50 in the test with SNU-16 cells was 15 nM; on human recombinant FGFR1, 5.4 nM.

For `C=CS(=O)(=O)Nc1ccc(CCn2c(=O)c(-c3cc(OC)cc(OC)c3Cl)cc3cnc(NC)nc32)cc1` [Example 20, N-(4-(2-(6-(2-chloro-3,5-dimethoxyphenyl)-2-(methylamino)-7-oxopyrido[2,3-d]pyrimidin-8(7H)-yl)ethyl)phenyl)ethenesulfonamide], the IC50 amounted to 24.3 nM in the test with SNU-16 cells and 3.4 nM at human recombinant FGFR1.

Consider `C=CC(=O)Nc1nc(CCn2c(=O)c(-c3cc(OC)cc(OC)c3Cl)cc3cnc(NC)nc32)cs1` [Example 33, N-(4-(2-(6-(2-chloro-3,5-dimethoxyphenyl)-2-(methylamino)-7-oxopyrido[2,3-d]-pyrimidin-8(7H)-yl)ethyl)thiazol-2-yl)acrylamide], for which the IC50 with SNU-16 cells stood at 32.7 nM; at human recombinant FGFR1 it was 4.1 nM.

For `C=CC(=O)Nc1cccc(CCn2c(=O)c(-c3cc(OC)cc(OC)c3)cc3cnc(NC)nc32)n1` [Example 11, N-(6-(2-(6-(3,5-dimethoxyphenyl)-2-(methylamino)-7-oxopyrido[2,3-d]pyrimidin-8(7H)-yl)ethyl)pyridin-2-yl)acrylamide], the IC50 with SNU-16 cells was 94.2 nM; at human recombinant FGFR1 it was 22.2 nM.

With `C=CC(=O)Nc1ccc(CCn2c(=O)c(-c3c(Cl)c(OC)cc(OC)c3Cl)cc3cnc(NCCO)nc32)nc1` [Example 86, N-(6-(2-(6-(2,6-dichloro-3,5-dimethoxyphenyl)-2-((2-hydroxyethyl)amino)-7-oxopyrido[2,3-d]pyrimidin-8(7H)-yl)ethyl)pyridin-3-yl)acrylamide], the values for the IC50 in the test with SNU-16 cells and on human recombinant FGFR1 were 11.4 nM and 0.6 nM, respectively.

Turning to `C=CC(=O)Nc1ccc(CCn2c(=O)c(-c3c(Cl)c(OC)cc(OC)c3Cl)cc3cnc(NCC(C)(C)CO)nc32)nc1` [Example 97, N-(6-(2-(6-(2,6-dichloro-3,5-dimethoxyphenyl)-2-((3-hydroxy-2,2-dimethylpropyl)-amino)-7-oxopyrido[2,3-d]pyrimidin-8(7H)-yl)ethyl)pyridin-3-yl)acrylamide], the IC50 with SNU-16 cells was 6.4 nM; at human recombinant FGFR1, 1.5 nM.

In the case of `C=CC(=O)Nc1ccc(CCn2c(=O)c(-c3c(Cl)c(OC)cc(OC)c3Cl)cc3cnc(NCC(C)(C)CO)nc32)cc1` [Example 93, N-(4-(2-(6-(2,6-dichloro-3,5-dimethoxyphenyl)-2-((3-hydroxy-2,2-dimethylpropyl)-amino)-7-oxopyrido[2,3-d]pyrimidin-8(7H)-yl)ethyl)phenyl)acrylamide], the results for the IC50 with SNU-16 cells and on human recombinant FGFR1 were 1.5 nM and 0.7 nM, respectively.

In the case of `C=CC(=O)Nc1ccc(CCn2c(=O)c(-c3cc(OC)cc(OC)c3Cl)cc3cnc(NCCCN(CC)CC)nc32)cc1` [Example 40, N-(4-(2-(6-(2-chloro-3,5-dimethoxyphenyl)-2-((3-(diethylamino)propyl)amino)-7-oxopyrido[2,3-d]pyrimidin-8(7H)-yl)ethyl)phenyl)acrylamide], the IC50 in the test with SNU-16 cells turned out to be 3 nM; on human recombinant FGFR1 it was 2.4 nM.

With `C=CC(=O)Nc1ccc(CCn2c(=O)c(-c3c(Cl)c(OC)cc(OC)c3Cl)cc3cnc(NCC4CC4)nc32)cc1` [Example 90, N-(4-(2-(2-((cyclopropylmethyl)amino)-6-(2,6-dichloro-3,5-dimethoxyphenyl)-7-oxopyrido[2,3-d]pyrimidin-8(7H)-yl)ethyl)phenyl)acrylamide], the IC50 turned out to be 4.6 nM in the test with SNU-16 cells and 1.8 nM on human recombinant FGFR1.

As to `C=CC(=O)Nc1ccc(CCn2c(=O)c(-c3cc(OC)cc(OC)c3Cl)cc3cnc(NCCN4CCOCC4)nc32)cn1` [Example 31, N-(5-(2-(6-(2-chloro-3,5-dimethoxyphenyl)-2-(2-morpholinoethylamino)-7-oxopyrido[2,3-d]pyrimidin-8(7H)-yl)ethyl)pyridin-2-yl)acrylamide], the IC50 in the test with SNU-16 cells amounted to 3.6 nM; at human recombinant FGFR1, 1.4 nM.

As usually defined, the IC50 is the concentration needed to halve the response being measured.
